Assay results from patent publication US7335665B2, “Spirocyclic piperidines as MCH1 antagonists and uses thereof” (H - Lundbeck A/S, priority 2003, dated 2008).

What follows are compounds tested against T1, rat MCH1 receptor (Rattus norvegicus, UniProt P97639) (assay: Radioligand binding assay at cloned rat MCH1 receptor ([3H]Compound A displacement)). Details: KI, cloned rat MCH1, membranes of transfected Peakr293 cells, 0.08 nM [3H]Compound A, 25° C., 90 minutes.
T1 construct: expressed in transfected cells; host or cells: Human embryonic kidney Peak rapid 293 cells (Peakr293), transient, calcium phosphate; membranes
T1 sequence (P97639 whole entry): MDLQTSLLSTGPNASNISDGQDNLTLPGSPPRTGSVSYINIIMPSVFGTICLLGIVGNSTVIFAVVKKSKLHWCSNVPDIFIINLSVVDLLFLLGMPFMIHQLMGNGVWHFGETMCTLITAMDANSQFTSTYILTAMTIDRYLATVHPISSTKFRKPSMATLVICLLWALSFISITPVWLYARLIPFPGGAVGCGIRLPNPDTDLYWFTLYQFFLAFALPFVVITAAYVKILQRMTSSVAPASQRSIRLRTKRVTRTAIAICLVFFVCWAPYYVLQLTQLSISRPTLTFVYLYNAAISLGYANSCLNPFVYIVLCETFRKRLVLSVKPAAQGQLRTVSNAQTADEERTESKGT
Description: For binding assays, pellets of transfected cells are suspended in ice-cold buffer (20 mM Tris.HCl, 5 mM EDTA, pH 7.4) and homogenized by sonication for 7 sec. The cell lysates are centrifuged at 200×g for 5 min at 4° C. The supernatants are then centrifuged at 40,000×g for 20 min at 4° C. The resulting pellets are washed once in the homogenization buffer and suspended in binding buffer (see methods for radioligand binding). Protein concentrations are determined by the method of Bradford (1976) using bovine serum albumin as the standard. Binding assays are usually performed immediately, however it is possible to prepare membranes in batch and store frozen in liquid nitrogen for future use.
Radioligand binding assays for the rat MCH1 receptor were carried out using plasmid pcDNA3.1-rMCH1-f (ATCC Patent Deposit Designation No. PTA-3505). Plasmid pcDNA3.1-rMCH1-f comprises the regulatory elements necessary for expression of DNA in a mammalian cell operatively linked to DNA encoding the rat MCH1 receptor so as to permit expression thereof. Plasmid pcDNA3.1-rMCH1-f was deposited on Jul. 5, 2001, with the American Type Culture Collection (ATCC), 12301 Parklawn Drive, Rockville, Md. 20852, U.S.A. under the provisions of the Budapest Treaty for the International Recognition of the Deposit of Microorganisms for the Purposes of Patent Procedure and was accorded ATCC Patent Deposit Designation No. PTA-3505.
Human embryonic kidney Peak rapid 293 cells (Peakr293 cells) were transiently transfected with DNA encoding the MCH1 receptor utilizing the calcium phosphate method and cell membranes were prepared as described above. Binding experiments with membranes from Peakr293 cells transfected with the rat MCH1 receptor were performed with 0.08 nM [^3H]Compound A (custom labeled by Amersham) (the synthesis of Compound A is described in detail below) using an incubation buffer consisting of 50 mM Tris pH 7.4, 10 mM MgCl2, 0.16 mM PMSF, 1 mM 1,10 phenantroline and 0.2% BSA. Binding was performed at 25° C. for 90 minutes. Incubations were terminated by rapid vacuum filtration over GF/C glass fiber filters, presoaked in 5% PEI using […] Tris pH 7.4 as wash buffer. In all experiments, nonspecific binding is defined using […] Compound A.
The compounds described above were assayed using cloned rat MCH1.

SMILES	Ki [µM]
O=C(NCCCCCN1CCC2(C=Cc3ccccc32)CC1)C(c1ccccc1)c1ccccc1 [Example 40, 2,2-DIPHENYL-N-(5-(SPIRO[INDENE-1,4′-PIPERIDINE]-10-YL)PENTYL)ACETAMIDE]	0.384
O=C(NCCN1CCC2(CCc3ccccc32)CC1)c1cccc2ccccc12 [Example 42, NAPHTHYL-N-(2-(SPIRO[INDANE-1,4′-PIPERIDINE]-10-YLETHYL)CARBOXAMIDE]	0.545
CC(C)(C(=O)NCCCN1CCC2(CCc3ccccc32)CC1)c1ccc(Cl)cc1 [Example 46]	0.0841
Cc1ccc(C(C(=O)NCCCN2CCC3(CCc4ccccc43)CC2)c2ccc(C)cc2)cc1 [Example 48, 2,2-BIS(4-METHYL)PHENYL)-N-(3-(SPIRO[INDANE-1,4′-PIPERIDINE]-10-YL)PROPYL)ACETAMIDE]	0.0297
O=C(NCCCN1CCC2(CCc3ccccc32)CC1)C(c1ccccc1)(c1ccccc1)c1ccccc1 [Example 49, 2,2,2-TRIPHENYL-N-(3-(SPIRO[INDANE-1,4′-PIPERIDINE]-10-YL)PROPYL)ACETAMIDE]	0.121
O=C(NCCCN1CCC2(CCc3ccccc32)CC1)C1(c2ccc(F)cc2)CCCC1 [Example 54, [(4-FLUOROPHENYL)CYCLOPENTYL]-N-(3-(SPIRO[INDANE-1,4′-PIPERIDINE]-10-YL)PROPYL)CARBOXAMIDE]	0.208
O=C(NCCCN1CCC2(CCc3ccccc32)CC1)C1(c2ccc(Cl)cc2)CCC1 [Example 59, [1-(4-CHLOROPHENYL)CYCLOBUTYL]-N-(3-(SPIRO[INDANE-1,4′-PIPERIDINE]-10-YL)PROPYL)CARBOXAMIDE]	0.175
CC(C(=O)NCCCN1CCC2(C=Cc3ccccc32)CC1)(c1ccccc1)c1ccccc1 [Example 63, 2,2-DIPHENYL-N-(3-(SPIRO[INDENE-1,4′-PIPERIDINE]-10-YL)PROPYL)PROPANAMIDE]	0.046
O=C(NCCCN1CCC2(C=Cc3ccccc32)CC1)C(c1ccccc1)(c1ccccc1)c1ccccc1 [Example 64, 2,2,2-TRIPHENYL-N-(3-(SPIRO[INDENE-1,4′-PIPERIDINE]-10-YL)PROPYL)ACETAMIDE]	0.036
CC(C)(C(=O)NCCCN1CCC2(C=Cc3ccccc32)CC1)c1ccc(Cl)cc1 [Example 65, 2-(4-CHLOROPHENYL)-2-METHYL-N-(3-(SPIRO[INDENE-1,4′-PIPERIDINE]-10-YL)PROPYL)PROPANAMIDE]	0.078
O=C(NCCCN1CCC2(C=Cc3ccccc32)CC1)C(c1ccc(F)cc1)c1ccc(F)cc1 [Example 67, 2,2-BIS(4-FLUOROPHENYL)-N-(3-(SPIRO[INDENE-1,4′-PIPERIDINE]-10-YL)PROPYL)ACETAMIDE]	0.0024

Same assay, conditions: cloned rat MCH1, membranes of transfected Peakr293 cells, 0.08 nM [3H]Compound A, 25° C., 90 minutes; read-out: KI

SMILES	Ki [µM]
CC(C)(C)c1cc(C(=O)NCCCCCN2CCC3(C=Cc4ccccc43)CC2)n(Cc2ccccc2)n1 [Example 37, [3-(TERT-BUTYL)-1-BENZYL)PYRAZOL-5-YL]-N-(5-(SPIRO[INDENE-1,4′-PIPERIDINE]-10-YL)PENTYL)CARBOXAMIDE]	0.794
O=C(NCCCN1CCC2(C=Cc3ccccc32)CC1)C(c1ccccc1)c1ccccc1 [Example 38, 2,2-DIPHENYL-N-(3-SPIRO[INDENE-1,4′-PIPERIDINE]-10-YLPROPYL)ACETAMIDE]	0.0065
O=C(NCCCN1CCC2(CCCc3ccccc32)CC1)C(c1ccccc1)c1ccccc1 [Example 39, 2,2-DIPHENYL-N-(3-SPIRO[1,2,3,4-TETRAHYDRONAPHTHALENE-1,4′-PIPERIDINE]-11-YLPROPYL)ACETAMIDE]	0.128
O=C(NCCN1CCC2(CCc3ccccc32)CC1)C(c1ccccc1)c1ccccc1 [Example 41, 2,2-DIPHENYL-N-(2-(SPIRO[INDANE-1,4′-PIPERIDINE]-10-YLETHYL) ACETAMIDE]	0.103
O=C(NCCN1CCC2(CCc3ccccc32)CC1)c1cccc(Cl)c1 [Example 43, (3-CHLOROPHENYL)-N-(2-(SPIRO[INDANE-1,4′-PIPERIDINE]-10-YLETHYL)CARBOXAMIDE]	0.507
O=C(NCCN1CCC2(CCc3ccccc32)CC1)c1cc(Cl)cc(Cl)c1 [Example 44, (3,5-DICHLOROPHENYL)-N-(2-(SPIRO[INDANE-1,4′-PIPERIDINE]-10-YLETHYL)CARBOXAMIDE]	0.182
O=C(NCCN1CCC2(CCc3ccccc32)CC1)c1ccc(F)c(F)c1 [Example 45, (3,4-DIFLUOROPHENYL)-N-(2-(SPIRO[INDANE-1,4′-PIPERIDINE]-10-YLETHYL)CARBOXAMIDE]	0.802
CC(C(=O)NCCCN1CCC2(CCc3ccccc32)CC1)(c1ccccc1)c1ccccc1 [Example 47, 2,2-DIPHENYL-N-(3-(SPIRO[INDANE-1,4′-PIPERIDINE]-10-YL)PROPYL)PROPANAMIDE]	0.154
CC(C(=O)NCCCN1CCC2(CCc3ccccc32)CC1)c1ccc(Cl)cc1 (stereo not shown) [Example 50, 2-(4-CHLOROPHENYL)-N-(3-(SPIRO[INDANE-1,4′-PIPERIDINE]-10-YL)PROPYL)PROPANAMIDE]	0.194
O=C(NCCCN1CCC2(CCc3ccccc32)CC1)C1(c2ccc(Cl)cc2)CCCC1 [Example 52, [1-(4-CHLOROPHENYL)CYCLOPENTYL]-N-(3-(SPIRO[INDANE-1,4′-PIPERIDINE]-10-YL)PROPYL)CARBOXAMIDE]	0.112
O=C(NCCCN1CCC2(CCc3ccccc32)CC1)C1(c2ccc(Cl)cc2)CCCCC1 [Example 53, 1-[(4-CHLOROPHENYL)CYCLOHEXYL]-N-(3-(SPIRO[INDANE-1,4′-PIPERIDINE]-10-YL)PROPYL)CARBOXAMIDE]	0.0569
O=C(NCCCN1CCC2(CCc3ccccc32)CC1)C(c1ccc(Cl)cc1)c1ccc(Cl)cc1 [Example 55, 2,2-BIS(4-CHLOROPHENYL)-N-(3-(SPIRO[INDANE-1,4′-PIPERIDINE]-10-YL)PROPYL)ACETAMIDE]	0.0086
O=C(NCCCN1CCC2(CCc3ccccc32)CC1)C1(c2ccc(F)cc2)CCCCC1 [Example 56, [1-(4-FLUOROPHENYL)CYCLOHEXYL]-N-(3-(SPIRO[INDANE-1,4′-PIPERIDINE]-10-YL)PROPYL)CARBOXAMIDE]	0.108
O=C(NCCCN1CCC2(CCc3ccccc32)CC1)C(c1ccc(F)cc1)c1ccc(F)cc1 [Example 57, 2,2-BIS(4-FLUOROPHENYL)-N-(3-(SPIRO[INDANE-1,4′-PIPERIDINE]-10-YL)PROPYL)ACETAMIDE]	0.0042
O=C(NCCCN1CCC2(CCc3ccccc32)CC1)C1(c2ccc(Cl)cc2)CC1 [Example 58, [1-(4-CHLOROPHENYL)CYCLOPROPYL]-N-(3-(SPIRO[INDANE-1,4′-PIPERIDINE]-10-YL)PROPYL)CARBOXAMIDE]	0.15
O=C(NCCCCN1CCC2(CCc3ccccc32)CC1)c1ccc(F)c(F)c1 [Example 60, (3,4-DIFLUOROPHENYL)-N-(4-(SPIRO[INDANE-1,4′-PIPERIDINE]-10-YL)BUTYL)CARBOXAMIDE]	0.0423
O=C(NCCCN1CCC2(CC1)Cc1ccccc1C2)C(c1ccccc1)c1ccccc1 [Example 61, 2,2-DIPHENYL-N-(3-(SPIRO[INDANE-2,4′-PIPERIDINE]-10-YL)PROPYL)ACETAMIDE]	0.049
Cc1ccc(C(C(=O)NCCCN2CCC3(C=Cc4ccccc43)CC2)c2ccc(C)cc2)cc1 [Example 62, 2,2-BIS(4-METHYL)PHENYL)-N-(3-(SPIRO[INDENE-1,4′-PIPERIDINE]-10-YL)PROPYL)ACETAMIDE]	0.026
CC(C(=O)NCCCN1CCC2(C=Cc3ccccc32)CC1)c1ccc(Cl)cc1 (stereo not shown) [Example 66, 2-(4-CHLOROPHENYL)-N-(3-(SPIRO[INDENE-1,4′-PIPERIDINE]-10-YL)PROPYL)PROPANAMIDE]	0.14
O=C(NCCCN1CCC2(C=Cc3ccccc32)CC1)C(c1ccc(Cl)cc1)c1ccc(Cl)cc1 [Example 68, 2,2-BIS(4-CHLOROPHENYL)-N-(3-(SPIRO[INDENE-1,4′-PIPERIDINE]-10-YL)PROPYL)ACETAMIDE]	0.0058
O=C(NCCCN1CCC2(C=Cc3ccccc32)CC1)C1(c2ccc(Cl)cc2)CCCC1 [Example 69, [(4-CHLOROPHENYL)CYCLOPENTYL]-N-(3-(SPIRO[INDENE-1,4′-PIPERIDINE]-10-YL)PROPYL)CARBOXAMIDE]	0.104
O=C(NCCCN1CCC2(C=Cc3ccccc32)CC1)C1(c2ccc(F)cc2)CCCC1 [Example 70, [(4-FLUOROPHENYL)CYCLOPENTYL]-N-(3-(SPIRO[INDENE-1,4′-PIPERIDINE]-10-YL)PROPYL)CARBOXAMIDE]	0.203
O=C(NCCCN1CCC2(C=Cc3ccccc32)CC1)C1(c2ccc(Cl)cc2)CCCCC1 [Example 71, [(4-CHLOROPHENYL)CYCLOHEXYL]-N-(3-(SPIRO[INDENE-1,4′-PIPERIDINE]-10-YL)PROPYL)CARBOXAMIDE]	0.071
